In test [1] the test system is complement classical pathway. Description: Classical pathway activation (C3b deposition) ELISA in human plasma with or without rabbit vitreous. It counts as biochemical. The following applies: in the absence of vitreous. How it is done:
An alternative explanation to the one presented above is that the vitreous contains additional unidentified factors that associate with the Cp40-KKK analog. To investigate whether an unidentified vitreous factor impacts the complement inhibitory activity of lysine containing compounds, complement activation assays were performed using vitreous samples. Briefly, human plasma was incubated with OVA-anti-OVA immune-complexes in the presence of serial dilutions of the Cp40-based analogs mixed with rabbit vitreous. Levels of classical pathway activation (C3b deposition) were determined by ELISA using a polyclonal anti-human C3 antibody conjugated with HRP (MP Biomedicals, Solon, OH) (FIG. 20).

The subject of test [2] is classical pathway of complement. Nature of the test: Classical pathway complement inhibition ELISA (C3b deposition) in normal human plasma. It is filed as biochemical. To be noted: human plasma diluted 1:40; mean of at least three experiments. As to the method: For this purpose, microtiter wells (NUNC) were coated with 50 μl of 1% ovalbumin in PBS (pH 7.4) at ambient temperature for 2 h. The wells were blocked with 200 μl of 1% BSA in PBS for 1 h, then coated with 50 μl of 1:1000 α-ovalbumin polyclonal antibody in PBS for 1 h. Between each step, the plate was washed thrice with 200 μl of 0.05% Tween 20 in PBS (PBS-T); 30 μl of VBS (Veronal buffer 1×; 5 mM veronal, pH 7.4, containing 150 mM NaCl, 0.5 mM CaCl2 and 0.5 mM MgCl2) were placed in all but the first well of each row of the 96-well plate, and 5 μM peptide solutions in VBS were prepared. […] Human plasma diluted 1:40 in VBS was incubated for 15 min with peptide of 0.005 to 2.5 μM. After washing with PBS-T, 50 μl/well of 1:1000 goat a-human C3 HRP conjugated antibody in 1% BSA in PBS was added to the wells and incubated for 1 h at room temperature. Complement fixation indicating activation was detected by the addition of HRP substrate (0.05% ABTS and 0.1% of 30% aqueous H2O2 in 0.1 M sodium citrate, pH 4.2) and read at 405 nm. The absorbance data obtained at 405 nm were translated into % inhibition, considering 100% to be equal to complement activation in the absence of peptide. The percent inhibition was plotted against the logarithm of concentrations, and the resulting data set was fitted to the equation “log(inhibitor) vs. normalized response” using GraphPad Prism 5 (La Jolla, CA). IC50 values were obtained from the fitted parameters of the mean of at least three independent experiments. Cp40 was always used as the internal control.
(In general: In an ELISA, binding on a coated surface is turned into a signal by an enzyme label.)

The IC50 is the concentration that gives 50% inhibition. Read a low IC50 as greater potency. As to `CC[C@H](C)[C@H](NC(=O)[C@H](N)Cc1ccc(O)cc1)C(=O)N[C@H]1CSSC[C@@H](C(=O)N(C)[C@H](C(=O)N[C@@H](CCCCN)C(=O)N[C@@H](CCCCN)C(=O)N[C@@H](CCCCN)C(N)=O)[C@@H](C)CC)NC(=O)[C@H](CCCNC(=N)N)NC(=O)[C@H](Cc2c[nH]cn2)NC(=O)[C@H](C)NC(=O)CN(C)C(=O)[C@H](Cc2c[nH]c3ccccc23)NC(=O)[C@H](CC(=O)O)NC(=O)[C@H](CCC(N)=O)NC(=O)[C@H](Cc2cn(C)c3ccccc23)NC(=O)[C@H](C(C)C)NC1=O` [Cp40-KKK, DTyr-Ile-[Cys-Val-Trp(Me)-Gln-Asp-Trp-Sar-Ala-His-Arg-Cys]-mlle-Lys-Lys-Lys—NH2], the “complement classical pathway inhibitory activity” value in test [1] was “inhibitory activity in a dose-dependent manner”. In test [2], this molecule had an IC50 of 81.7 ± 5.3 nM.

The record behind these values is patent publication US11884747B2, “Compstatin analogs with increased solubility and improved pharmacokinetic properties” (The Trustees of the University of Pennsylvania, priority 2018, dated 2024).
